1 compound from patent US20220370416A1, “COMPOUNDS AND METHODS FOR TARGETED DEGRADATION OF KRAS” (Arvinas Operations, Inc., priority 2020, published 2022) can be followed below.

A value given as a limit tells only on which side of the number the result lay.

Holding throughout (type): cell-based
Assay [1] addresses T1, KRAS^G12C (Homo sapiens, UniProt P01116, G12C). In words: KRAS^G12C degradation by immunoblot in NCI-H358 cells. Details: MRTX849-VHL bifunctional compounds engage and degrade endogenous KRAS^G12C in NCI-H2030 cells; endogenous in cells; host or cells: NCI-H2030, NCI-H358, MIA PaCa-2, SW1573, NCI-H23. The settings on record: NCI-H358, heterozygous KRAS^G12C. How it is done: (§1) NCI-H2030 (CRL-5914), MIA PaCa-2 (CRL-1420), NCI-H23 (CRL-5800), NCI-H358 (CRL-5807), and HCT-116 (CCL-247) cells were obtained from ATCC, expanded immediately, and frozen down. Vials were thawed and used within 20 passages. SW1573 cells were a gift from Arvinas and were handled in the same manner. NCI-H2030, NCI-H23, and NCI-H358 were cultured in RPMI (ATCC30-2001) supplemented with 10% FBS (Biological Industries; cat. no. S1480) and 1% Penicillin-Streptomycin (ThermoFisher; cat. no. 15140122). HCT-116 cells were maintained in high glucose DMEM (ThermoFisher; cat. no. 11965084) supplemented as above. […]
(§2) Cell lysates were clarified at 21000×g for 15 mins at 4° C. Protein levels were quantified using a 50:1 mixture of bicinchoninic acid solution (Millipore Sigma; cat. no. B9643) and 4% (w/v) copper(II) sulfate solution (Millipore Sigma; cat. no. C2284) incubated at 37° C. for 30 mins. Absorbance values at 560 nm were read on an EnVision 2101 Multilabel Reader (PerkinElmer). […]
(§3) Band intensities were quantified using BioRad's Image Lab Software. Total KRAS levels were examined by quantifying levels of both conjugated KRAS^G12C and unbound KRAS (wt or mutant) using an analysis box that spanned the two bands. This same sized box was used to quantify unbound KRAS in DMSO treated samples to account for background, except for LC-2 Epimer in FIGS. 6A and 6B. […]
A general note: Immunoblotting shows a protein as a band on a membrane.

In assay [2] the target is T2, KRAS^G12D (Homo sapiens, UniProt P01116, G13D).
T2 construct: KRAS degradation was examined in HCT 116 cells, which harbor a heterozygous KRAS^G13D mutation; endogenous in cells; host or cells: HCT116
In words: KRAS^G12D degradation in HCT116 cells (specificity). The settings on record: HCT116 cells (FIG. 3B).

The target in assay [3] is T1, KRAS^G12C. In words: KRAS^G12C degradation in a panel of 5 KRAS^G12C cancer cell lines (immunoblot). The note with it: read-out: DMax values across cell lines. Also on record: MRTX849-VHL bifunctional compounds engage and degrade endogenous KRAS^G12C in NCI-H2030 cells; endogenous in cells; host or cells: NCI-H2030, NCI-H358, MIA PaCa-2, SW1573, NCI-H23. The method, then: as §1, §2, §3

T1 sequence (P01116 1-188 isoform P01116-2 G12C): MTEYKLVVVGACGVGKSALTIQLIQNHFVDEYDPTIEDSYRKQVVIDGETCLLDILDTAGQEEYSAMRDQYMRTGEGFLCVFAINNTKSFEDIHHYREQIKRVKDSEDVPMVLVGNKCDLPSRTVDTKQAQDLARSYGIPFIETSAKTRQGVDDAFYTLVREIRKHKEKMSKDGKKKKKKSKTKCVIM
T2 sequence (P01116 1-185 isoform P01116-2 G13D): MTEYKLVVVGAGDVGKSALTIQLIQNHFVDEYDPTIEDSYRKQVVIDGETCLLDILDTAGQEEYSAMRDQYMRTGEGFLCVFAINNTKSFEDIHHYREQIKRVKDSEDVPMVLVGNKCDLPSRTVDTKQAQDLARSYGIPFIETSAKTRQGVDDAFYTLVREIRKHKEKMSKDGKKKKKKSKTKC

In general, DC50 refers to the midpoint of the concentration-degradation curve. The low end stands for a more potent degrader, the high end for a less potent degrader. A word on the Dmax: it is the greatest extent of degradation seen. In assay [1], `C=C(F)C(=O)N1CCN(c2nc(OC[C@@H]3CCCN3CCCOCCC(=O)N[C@H](C(=O)N3C[C@H](O)C[C@H]3C(=O)NCc3ccc(-c4scnc4C)cc3)C(C)(C)C)nc3c2CCN(c2cccc4cccc(Cl)c24)C3)C[C@@H]1CC#N` [LC-2, (2S,4R)-1-((S)-2-(3-(3-((S)-2-(((7-(8-chloronaphthalen-1-yl)-4-((S)-3-(cyanomethyl)-4-(2-fluoroacryloyl)piperazin-1-yl)-5,6,7,8-tetrahydropyrido[3,4-d]pyrimidin-2-yl)oxy)methyl)pyrrolidin-1-yl)propoxy)propanamido)-3,3-dimethylbutanoyl)-4-hydroxy-N-(4-(4-methylthiazol-5-yl)benzyl)pyrrolidine-2-carboxamide] showed a DC50 of 520 ± 300 nM and a Dmax greater than 40%. For the same compound, the “degradation of KRAS^G12D” value in assay [2] is listed as “does not degrade KRAS^G12D”. In assay [3], the Dmax fell in the range of 75 to 90%.
